Reference: EP4782431A1 (Suzhou Merna Therapeutics Co. Ltd, priority 2023, dated 2025)

Legend:
HaCaT cells = assay: m6A methylation level of human keratinocytes (EpiQuik m6A RNA methylation quantification kit); type: cell-based; settings: for m6A fold change: 24 hours
Experimental: HaCaT cells were cultured in DMEM culture medium containing 10% fetal bovine serum, 100 U/mL penicillin, and 100 µg/mL streptomycin. Culture dishes were placed in an incubator containing 5% CO2 for culture at 37°C for 24 hours. An equal volume of DMSO was added in control group 1, 50 nM sorafenib, capecitabine, docetaxel, and osimertinib were respectively added in control groups A, B, C, and D, and 400 nM test compounds or nicotinamide were respectively added in sample groups A1, A2, B1, B2, C1, C2, D1, and D2 after the addition of 50 nM corresponding compounds. The cells were continuously cultured for 24 hours, washed with PBS, and then collected by high-speed centrifugation. Total RNA was extracted using Trizol reagent (Sigma Aldrich), and RNA m6A methylation of a sample was quantitatively detected using an EpiQuik m6A RNA methylation quantification kit. The concentrations of positive control samples for a standard curve were 0.01 ng/µl, 0.02 ng/µl, 0.05 ng/µl, 0.1 ng/µl, 0.2 ng/µl, and 0.5 ng/µl. The absorbance at 450 nm was read using a microplate reader (Tecan GENios). A quantitative calculation formula for m6A is as follows: m6A(ng) = (absorbanceofsamplewell−absorbanceofbackroundwell)/slope of standard curve [formula] m6A(%) = m6A(ng)/RNA amount of sample(ng)*100%. [formula]

[1] = tested on: rat models with a hand-foot skin reaction; assay: rat models with a hand-foot skin reaction; type: in vivo, SD rats
Experimental: After adaptive feeding for one week, SD rats (with a body weight of approximately 200 g) were randomly divided into groups with balanced body weight, with 12 rats in each group. Modeling drugs (including sorafenib, erlotinib, afatinib, and osimertinib) were respectively dissolved in a solution containing 5% of DMSO, 45% of PEG400, and 50% of H2O, and the modeling drugs were diluted to required concentrations and then administered once daily by gavage at doses shown in Table 3. After administration by gavage for 1 hour, 0.05 g of ointments containing different mass proportions of test compounds were evenly applied to left paws of the rats, a blank matrix ointment was applied to right paws of the rats to serve as a self-control, and no ointment was applied to the rats in a blank control group. After drug application, four limbs were continuously immobilized for 2 hours, then wiped with clean water to remove the residual drugs, removed from immobilization, and restored to free movement. The modeling drugs, the blank matrix ointment, and the ointments containing the test compounds were all administered once daily. After continuous administration for 30 days, the rats were euthanized, and paw plantar skin tissues were collected, fixed in 10% neutral formalin, […]. The ointments for the test compounds were prepared by mixing the compounds, white beeswax, white petrolatum, and light liquid paraffin in specific ratios (weight ratios of 3 ointments were respectively 1:18:58:23, 3:18:57:22, and 10:20:40:30). The blank matrix ointment was prepared by mixing white beeswax, white petrolatum, and light liquid paraffin in a specific ratio (weight ratio of 18:60:22).
Tissue staining: After dewaxing and rehydration, the paw plantar skin tissue sections of the above rats were stained in a hematoxylin solution for several minutes, cleaned, and placed in 1% acid alcohol for soaking until the sections faded to light blue-red. After cleaning with running water for 5 minutes, the sections were stained with eosin for 2-3 minutes, cleaned to remove excess dyes, dehydrated, then permeabilized by adding xylene for several minutes, and sealed and fixed with a neutral resin. The stratum corneum was observed under an optical microscope, and the thickness of the epidermal stratum corneum was measured using Dmetrix software.
Immunohistochemical staining: After dewaxing and hydration, the paw plantar skin tissue sections of the above rats were incubated with 3% H2O2 at room temperature for 30 minutes and blocked with 10% goat serum for 30 minutes after antigen retrieval. A KRT1 antibody (Abcam, ab93652) and a Loricrin antibody (Abcam, ab183646) were added dropwise, the sections were incubated overnight at 4°C, and an HRP secondary antibody (ZSGB-BIO, PV-6001) and a DAB kit (ZSG-BIO, ZLI9017) were added for color development. The sections were re-stained with hematoxylin, cleaned, and sealed and fixed with a neutral resin, and the expression amounts of KRT1 and Loricrin were observed under an optical microscope.
An incidence rate calculation method involves a proportion of animals in each group meeting the above criteria for determining successful modeling, that is, incidence rate = (number of successfully modeled rats/total number of rats in the group)*100%. […]

[2] = 50 nM drug alone, relative to control group 1 (DMSO)
[3] = modeling drug alone by gavage once daily 30 days (Sorafenib 100, Erlotinib 70, Afatinib 50, Osimertinib 60 mg/kg), no test compound
[4] = 400 nM after 50 nM capecitabine, relative to control group 1
[5] = 400 nM after 50 nM docetaxel, relative to control group 1
[6] = 400 nM after 50 nM osimertinib, relative to control group 1
[7] = 400 nM after 50 nM sorafenib, relative to control group 1

CNC(=O)c1cc(Oc2ccc(NC(=O)Nc3ccc(Cl)c(C(F)(F)F)c3)cc2)ccn1 [Sorafenib, sorafenib]
m6A fold change (HaCaT cells; [2]): 4.5 fold | successful modeling rates for the hand-foot skin reaction ([1]; SD rats, once daily by gavage: sorafenib 100, erlotinib 70, afatinib 50, osimertinib 60 mg/kg): 75% | KRT1 and Loricrin in tissues ([1]; immunohistochemical staining, successfully modeled rats, modeling drug alone): significantly increased | Incidence rate Left paw [1, 3]: 9/12 (75%) | Incidence rate Right paw [1, 3]: 9/12 (75%) | stratum corneum thickness of the paw plantar skin ([1]; successfully modeled rats, modeling drug alone, vs normal rats): significantly higher than that of normal rats

C=CC(=O)Nc1cc(Nc2nccc(-c3cn(C)c4ccccc34)n2)c(OC)cc1N(C)CCN(C)C [Osimertinib, osimertinib]
m6A fold change (HaCaT cells; [2]): 4.8 fold | KRT1 and Loricrin in tissues ([1]; rat, in vivo): significantly increased | stratum corneum thickness of the paw plantar skin ([1]; rat, in vivo): significantly higher than that of normal rats

NC(=O)c1cccnc1 [Nicotinamide, nicotinamide]
m6A fold change (HaCaT cells; [4]): 4.5 fold | m6A fold change (HaCaT cells; [5]): 5.4 fold | m6A fold change (HaCaT cells; [6]): 5.0 fold | m6A fold change (HaCaT cells; [7]): 4.7 fold

NC(=O)[C@H]1CCCc2c1[nH]c1ccc(Cl)cc21 [Compound of formula (I), (S)-6-chloro-2,3,4,9-tetrahydro-1H-carbazole-carboxamide]
abnormal increase in the RNA m6A level of human keratinocytes caused by chemotherapeutic drugs and multikinase inhibitors (HaCaT cells; 400 nM): effectively inhibit | m6A fold change (HaCaT cells; [4]): 1.1 fold | m6A fold change (HaCaT cells; [5]): 1.0 fold | m6A fold change (HaCaT cells; [6]): 1.2 fold | m6A fold change (HaCaT cells; [7]): 1.4 fold | Incidence rate Left paw ([1]; Afatinib 50 mg/kg model, 1% ointment on left paw, once daily 30 days): 3/12 (25%) | Incidence rate Left paw ([1]; Afatinib 50 mg/kg model, 3% ointment on left paw, once daily 30 days): 2/12 (17%) | Incidence rate Left paw ([1]; Afatinib 50 mg/kg model, 10% ointment on left paw, once daily 30 days): 0/12 (0%) | Incidence rate Right paw ([1]; Afatinib 50 mg/kg model, right paw with blank matrix ointment, 1% ointment on left paw, 30 days): 9/12 (75%) | Incidence rate Right paw ([1]; Afatinib 50 mg/kg model, right paw with blank matrix ointment, 3% ointment on left paw, 30 days): 4/12 (33%) | Incidence rate Right paw ([1]; Afatinib 50 mg/kg model, right paw with blank matrix ointment, 10% ointment on left paw, 30 days): 3/12 (25%) | Incidence rate Left paw ([1]; Erlotinib 70 mg/kg model, 1% ointment on left paw, once daily 30 days): 3/12 (25%) | Incidence rate Left paw ([1]; Erlotinib 70 mg/kg model, 3% ointment on left paw, once daily 30 days): 2/12 (17%) | Incidence rate Left paw ([1]; Erlotinib 70 mg/kg model, 10% ointment on left paw, once daily 30 days): 1/12 (8%) | Incidence rate Right paw ([1]; Erlotinib 70 mg/kg model, right paw with blank matrix ointment, 1% ointment on left paw, 30 days): 10/12 (83%) | Incidence rate Right paw ([1]; Erlotinib 70 mg/kg model, right paw with blank matrix ointment, 3% ointment on left paw, 30 days): 5/12 (42%) | Incidence rate Right paw ([1]; Erlotinib 70 mg/kg model, right paw with blank matrix ointment, 10% ointment on left paw, 30 days): 4/12 (33%) | Incidence rate Left paw ([1]; Osimertinib 60 mg/kg model, 1% ointment on left paw, once daily 30 days): 2/12 (17%) | Incidence rate Left paw ([1]; Osimertinib 60 mg/kg model, 3% ointment on left paw, once daily 30 days): 2/12 (17%) | Incidence rate Left paw ([1]; Osimertinib 60 mg/kg model, 10% ointment on left paw, once daily 30 days): 0/12 (0%) | Incidence rate Right paw ([1]; Osimertinib 60 mg/kg model, right paw with blank matrix ointment, 1% ointment on left paw, 30 days): 8/12 (67%) | Incidence rate Right paw ([1]; Osimertinib 60 mg/kg model, right paw with blank matrix ointment, 3% ointment on left paw, 30 days): 4/12 (33%) | Incidence rate Right paw ([1]; Osimertinib 60 mg/kg model, right paw with blank matrix ointment, 10% ointment on left paw, 30 days): 3/12 (25%) | Incidence rate Left paw ([1]; Sorafenib 100 mg/kg model, 1% ointment on left paw, once daily 30 days): 2/12 (17%) | Incidence rate Left paw ([1]; Sorafenib 100 mg/kg model, 3% ointment on left paw, once daily 30 days): 2/12 (17%) | Incidence rate Left paw ([1]; Sorafenib 100 mg/kg model, 10% ointment on left paw, once daily 30 days): 0/12 (0%) | Incidence rate Right paw ([1]; Sorafenib 100 mg/kg model, right paw with blank matrix ointment, 1% ointment on left paw, 30 days): 9/12 (75%) | Incidence rate Right paw ([1]; Sorafenib 100 mg/kg model, right paw with blank matrix ointment, 3% ointment on left paw, 30 days): 4/12 (33%) | Incidence rate Right paw ([1]; Sorafenib 100 mg/kg model, right paw with blank matrix ointment, 10% ointment on left paw, 30 days): 4/12 (33%) | stratum corneum thickness of the paw plantar skin of the modeled rats ([1]; ointment on paw of modeled rats): effectively decrease | incidence rate of hand-foot skin reaction at a drug application site ([1]; ointment, mass content of 1%): significantly decrease | incidence rate of hand-foot skin reaction in all paws of the rats ([1]; ointment, mass content of 3% and 10%): significantly decrease | formation of blisters in the epidermis and subepidermis caused by the modeling drugs ([1]; pathological scoring (FIG. 10)): effectively alleviate | inflammatory cell infiltration in the dermis ([1]; pathological scoring (FIG. 10)): inhibit | skin congestion phenomenon ([1]; pathological scoring (FIG. 10)): significantly alleviate | formation of blisters in the epidermis and subepidermis caused by the modeling drugs ([1]; tissue staining (FIG. 9)): effectively alleviate | inflammatory cell infiltration in the dermis ([1]; tissue staining (FIG. 9)): inhibit | skin congestion phenomenon ([1]; tissue staining (FIG. 9)): significantly alleviate
